What all share (assay): DTP human tumour cell line panel, 48 h
The subject of test [1] is SN12C renal.
The test system of test [2] is HOP-92 NSCLC.
The test system of test [3] is A498 renal.
In test [4] the test system is SF-539 CNS.
Test [5] deals with SNB-75 CNS.
The test system of test [6] is SK-MEL-2 melanoma.
Test [7] has as its system HT29 colon.
Test [8] concerns TK-10 renal.
The test system of test [9] is SF-295 CNS.
Test [10] relates to MDA-MB-231 breast.

Structures are written as SMILES. Values joined by “and” are separate entries in the source; they are usually repeats but may differ in a detail not shown here. Equal values may be shown once.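 Tested at 5 concentrations; 48 h exposure; 96-well plates; endpoints linearly interpolated, else capped at highest concentration. At the GI50, growth is halved. The concentration for full growth arrest is given as TGI.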

Take `Cc1c(Br)c(Br)c2c3c1nc(N1CCNCC1)n3CCC2`: the GI50 in [1] is 1420 nM; in test [2], 74.4 nM; in test [3], 1440 nM; in test [4], 1640 nM; in [5], 1960 nM; in test [6], 1950 nM. The GI50 in [7] is 1510 nM; in [8], 1560 nM; in test [9], 1860 nM; in test [10], 1360 nM. For the same compound, the TGI in test [1] stood at 2850 nM; in [2], 1120 nM; in [3], 2990 nM; in test [4], 3090 nM; in test [5], 4100 nM; in test [6], 4060 nM. Also, the TGI in test [7] came out at 3200 nM; in test [8], 3120 nM; in test [9], 3680 nM; in [10] it was 2740 nM.
In the case of `Cc1cc(NS(=O)(=O)c2ccc(-c3cnc(C4CC4)o3)cc2)ccc1Cl`, the GI50 in [1] was 961 nM; in [2], 472 nM; in [3], 82.8 nM; in test [4], 281 nM; in test [5], 120 nM; in [6] it was 445 nM. Also, the GI50 in test [7] is 191 nM; in test [8] it was 1110 nM; in test [9] it was 99.5 nM; in test [10] it was 794 nM. The TGI in test [1] was found to be 13900 nM; in [2], 10100 nM; in test [3] it was 676 nM; in [4], 4090 nM; in [5] it was 643 nM; in test [6], 20300 nM. The TGI was determined as 3890 nM in test [7], 16000 nM in [8], 2570 nM in test [9] and 12200 nM in test [10].
Turning to `COc1ccc(/C=C/C(=O)C(=O)/C=C/c2ccc(OC)c(OC)c2)cc1OC`, the GI50 is 3060 nM in test [1]; 15100 nM in test [2]; 2260 nM in test [3]; 2130 nM in test [4]; 2490 nM in test [5]; 30600 nM in test [6]. Further, the GI50 in test [7] was 763 nM; in test [8] it was 3830 nM; in test [9], 3050 nM; in test [10], 2250 nM. For the same compound, the TGI was 17700 nM in [1]; 82800 nM in test [2]; 19900 nM in test [3]; 5160 nM in test [4]; 33900 nM in [5]; greater than 100000 nM in test [6]. The total growth inhibition concentration (TGI) in test [7] was determined as 2620 nM; in [8] it was 25000 nM; in test [9] it was 31200 nM; in [10], 6000 nM.
As for `Cn1cc(Nc2nccc(-c3ccc4c(c3)CN(C3COC3)CC[C@H]4NC(=O)c3cn(C(C)(C)C)nn3)n2)cn1`, the GI50 in test [1] is 75300 nM; in test [2], 16000 nM; in test [3], 76500 nM; in test [4] it was 99100 nM; in test [5], 24400 nM; in test [6], greater than 100000 nM. The GI50 in test [7] is 33000 nM; in [8] it was 59500 nM; in test [9], greater than 100000 nM; in test [10] it was 77300 nM. Besides, the TGI was greater than 100000 nM in test [1]; 89700 nM in test [2]; greater than 100000 nM in test [3]; greater than 100000 nM in [4]; greater than 100000 nM in test [5]; greater than 100000 nM in test [6]. The TGI in test [7], in [8], in test [9] and in [10] was greater than 100000 nM each time.
Turning to `Cc1ccc2c(-c3ccnc(Nc4cccc(C(F)(F)F)c4)n3)c(-c3ccccc3)nn2n1`, the GI50 is 3820 nM in test [1]; greater than 25000 nM in test [2]; 5720 nM in test [3]; 6560 nM in test [4]; 3870 nM in test [5]; 6280 nM in test [6]. Further, the GI50 is 2280 nM in [7], 3570 nM in test [8], greater than 13400 nM in test [9] and 3340 nM in test [10]. Also, the TGI in test [1] is greater than 15500 nM; in test [2] it was greater than 25000 nM; in [3], greater than 15400 nM; in test [4] it was greater than 19600 nM; in test [5], greater than 25000 nM; in test [6], 14300 nM. In addition, the TGI in test [7] is greater than 15500 nM; in test [8], 11400 nM; in test [9], greater than 25000 nM; in [10], 8640 nM.
As for `CC[C@@]1(O)C(=O)OCc2c1cc1n(c2=O)Cc2cc3cc(O)ccc3nc2-1`, the TGI in [1] is 1480 nM and 3540 nM; in [2] it was 107 nM and 513 nM; in [3], 703 nM and 453 nM; in test [4], 49.5 nM and 16.6 nM; in test [5] it was 206 nM and 107 nM; in test [6] it was 2150 nM and 1200 nM. In addition, the TGI in test [7] is 18400 nM; in [8], 44900 nM; in test [9] it was 799 nM and 3910 nM; in [10], greater than 100000 nM. For the same compound, the GI50 in [2] was 23.9 nM; in [3] it was 195 nM and 45.5 nM; in [6], 174 nM; in [7], 160 nM and 167 nM; in [9], 28.2 nM and 29 nM.
Turning to `COc1ccc(-c2cc(-c3ccc(Cl)cc3)nc(SCCCC(=O)NO)n2)cc1OC`, the GI50 in test [1] was 819 nM; in test [2], 1760 nM; in test [3], 1220 nM; in test [4], 1280 nM; in test [5], 1490 nM; in [6], 2900 nM. Besides, the GI50 in test [7] was 1460 nM; in test [8] it was 537 nM; in test [9], 926 nM; in test [10] it was 788 nM. Besides, the total growth inhibition concentration (TGI) in test [1] was found to be 5640 nM; in test [2] it was 5330 nM; in [3], 2800 nM; in [4] it was 3000 nM; in test [5], 6310 nM; in test [6] it was 10800 nM. Moreover, the TGI in [7] is greater than 26000 nM; in [8], 8280 nM; in [9], 2750 nM; in [10] it was 4290 nM.

What is called GI50 is the concentration at which growth is held to half of that of the control. One may read the TGI as the concentration giving total growth inhibition. A higher TGI goes with less potent growth arrest.

For the origin of these results see PubChem BioAssay (NCI).
